From ChEMBL document CHEMBL5528055, “Discovery and Identification of Novel 5-Hydroxy-4H-benzo[1,4]oxazin-3-one Derivatives as Potent β2-Adrenoceptor Agonists through Structure-Based Design, Synthesis, and Biological Evaluation” (J Med Chem, 2024)

Legend:
Trachea = test: Induction of smooth muscle relaxation in male Dunkin-Hartley guinea pig trachea strips assessed as maximal relaxation of histamine phosphate-induced guinea pig airway smooth muscle contraction relative to control; conditions: Cavia porcellus
[1] = molecular target: Beta-2 adrenergic receptor (Homo sapiens, UniProt P07550)
Description: Agonist activity at human beta2 adrenoceptor expressed in HEK293 cells assessed as induction of accumulation of cAMP by HTRF assay

[2] = molecular target: Beta-1 adrenergic receptor (Homo sapiens, UniProt P08588)
Description: Agonist activity at human beta1 adrenoceptor expressed in HEK293 cells assessed as induction of accumulation of cAMP by HTRF assay

[3] = Half life in male Balb/c mouse at 2 mg/kg, iv measured upto 24 hrs by LC-MS/MS analysis; assay type: ADME, organism-based; conditions: in vivo
[4] = Half life in male Balb/c mouse at 10 mg/kg, po measured upto 24 hrs by LC-MS/MS analysis; assay type: ADME, organism-based; conditions: in vivo
[5] = Tmax in male Balb/c mouse at 10 mg/kg, po measured upto 24 hrs by LC-MS/MS analysis; assay type: ADME, organism-based; conditions: in vivo
[6] = Cmax in male Balb/c mouse at 10 mg/kg, po measured upto 24 hrs by LC-MS/MS analysis; assay type: ADME, organism-based; conditions: in vivo
[7] = AUC (0 to t) in male Balb/c mouse at 10 mg/kg, po measured upto 24 hrs by LC-MS/MS analysis; assay type: ADME, organism-based; conditions: in vivo
[8] = AUC (0 to infinity) in male Balb/c mouse at 10 mg/kg, po measured upto 24 hrs by LC-MS/MS analysis; assay type: ADME, organism-based; conditions: in vivo
[9] = MRT in male Balb/c mouse at 10 mg/kg, po measured upto 24 hrs by LC-MS/MS analysis; assay type: ADME, organism-based; conditions: in vivo
[10] = MRT (0 to infinity) in male Balb/c mouse at 10 mg/kg, po measured upto 24 hrs by LC-MS/MS analysis; assay type: ADME, organism-based; conditions: in vivo
[11] = Oral bioavailability in male Balb/c mouse at 10 mg/kg measured upto 24 hrs by LC-MS/MS analysis; assay type: ADME, organism-based; conditions: in vivo
[12] = Tmax in male Balb/c mouse at 2 mg/kg, iv measured upto 24 hrs by LC-MS/MS analysis; assay type: ADME, organism-based; conditions: in vivo
[13] = Cmax in male Balb/c mouse at 2 mg/kg, iv measured upto 24 hrs by LC-MS/MS analysis; assay type: ADME, organism-based; conditions: in vivo
[14] = AUC (0 to t) in male Balb/c mouse at 2 mg/kg, iv measured upto 24 hrs by LC-MS/MS analysis; assay type: ADME, organism-based; conditions: in vivo
[15] = AUC (0 to infinity) in male Balb/c mouse at 2 mg/kg, iv measured upto 24 hrs by LC-MS/MS analysis; assay type: ADME, organism-based; conditions: in vivo
[16] = MRT in male Balb/c mouse at 2 mg/kg, iv measured upto 24 hrs by LC-MS/MS analysis; assay type: ADME, organism-based; conditions: in vivo
[17] = MRT (0 to infinity) in male Balb/c mouse at 2 mg/kg, iv measured upto 24 hrs by LC-MS/MS analysis; assay type: ADME, organism-based; conditions: in vivo
[18] = Apparent volume of distribution in male Balb/c mouse at 2 mg/kg, iv measured upto 24 hrs by LC-MS/MS analysis; assay type: ADME, organism-based; conditions: in vivo, read-out: Vd(app)
[19] = Clearance in male Balb/c mouse at 2 mg/kg, iv measured upto 24 hrs by LC-MS/MS analysis; assay type: ADME, organism-based; conditions: in vivo

Sequence of Beta-1 adrenergic receptor (P08588 whole entry): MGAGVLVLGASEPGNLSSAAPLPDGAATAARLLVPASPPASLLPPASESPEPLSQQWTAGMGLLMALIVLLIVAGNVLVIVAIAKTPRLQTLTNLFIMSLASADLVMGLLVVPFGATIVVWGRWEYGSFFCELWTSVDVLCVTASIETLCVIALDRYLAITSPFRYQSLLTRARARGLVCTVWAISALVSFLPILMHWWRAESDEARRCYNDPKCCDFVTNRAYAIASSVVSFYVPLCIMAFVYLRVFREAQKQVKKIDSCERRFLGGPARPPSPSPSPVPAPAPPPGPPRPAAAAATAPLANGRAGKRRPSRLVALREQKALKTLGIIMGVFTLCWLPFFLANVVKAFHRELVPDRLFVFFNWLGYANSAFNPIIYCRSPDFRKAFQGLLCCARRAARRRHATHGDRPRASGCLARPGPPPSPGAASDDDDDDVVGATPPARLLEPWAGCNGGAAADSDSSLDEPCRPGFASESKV
Sequence of Beta-2 adrenergic receptor (P07550 whole entry): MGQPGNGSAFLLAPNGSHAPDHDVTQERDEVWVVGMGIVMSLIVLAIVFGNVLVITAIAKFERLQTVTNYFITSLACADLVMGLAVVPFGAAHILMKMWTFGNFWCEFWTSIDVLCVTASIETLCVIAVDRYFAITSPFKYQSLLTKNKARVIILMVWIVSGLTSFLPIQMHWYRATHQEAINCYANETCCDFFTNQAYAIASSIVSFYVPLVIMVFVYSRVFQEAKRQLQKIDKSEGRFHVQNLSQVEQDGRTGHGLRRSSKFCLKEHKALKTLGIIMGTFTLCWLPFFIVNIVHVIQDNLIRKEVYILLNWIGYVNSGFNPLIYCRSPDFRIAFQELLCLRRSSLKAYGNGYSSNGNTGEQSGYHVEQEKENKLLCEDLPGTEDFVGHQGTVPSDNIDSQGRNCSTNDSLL

EC50 [1] [nM] | EC50 [2] [nM] | Structure (SMILES) | Emax (Trachea) [%] | other results
0.0316 | 14.5 | CCCNCC(O)c1ccc(O)c2c1OCC(=O)N2 (stereo unspecified) | 60.5 | –
0.00479 | 0.17 | O=C1COc2c(C(O)CNCCCc3ccccc3F)ccc(O)c2N1 (stereo unspecified) | 90.5 | –
0.00871 | – | COc1cccc(CCNCC(O)c2ccc(O)c3c2OCC(=O)N3)c1 (stereo unspecified) | – | –
0.0055 | 1.2 | O=C1COc2c(C(O)CNCCCc3ccc(C(F)(F)F)cc3)ccc(O)c2N1 (stereo unspecified) | 132 | –
0.00589 | 0.257 | O=C1COc2c(C(O)CNCCCc3ccccc3)ccc(O)c2N1 (stereo unspecified) | 237 | –
0.00468 | – | O=C1COc2c(C(O)CNCCCc3cccc(F)c3)ccc(O)c2N1 (stereo unspecified) | 126 | –
0.00794 | – | COc1cccc(CCCNCC(O)c2ccc(O)c3c2OCC(=O)N3)c1 (stereo unspecified) | – | –
0.00457 | 0.178 | COc1ccccc1CCCNCC(O)c1ccc(O)c2c1OCC(=O)N2 (stereo unspecified) | 109 | –
0.024 | 1.38 | O=C1COc2c(C(O)CNCCc3cccc(F)c3)ccc(O)c2N1 (stereo unspecified) | 94.9 | –
0.0468 | 2.24 | O=C1COc2c(C(O)CNCCC(c3ccccc3)c3ccccc3)ccc(O)c2N1 (stereo unspecified) | 63.3 | –
0.00437 | 0.138 | O=C1COc2c(C(O)CNCCCc3cccc(O)c3)ccc(O)c2N1 (stereo unspecified) | 87.4 | –
0.0038 | 0.513 | COc1ccc(CCCNCC(O)c2ccc(O)c3c2OCC(=O)N3)cc1 (stereo unspecified) | 74.2 | –
0.0038 | 0.245 | O=C1COc2c(C(O)CNCCCc3ccc(F)cc3)ccc(O)c2N1 (stereo unspecified) | 69.5 | –
– | 1.82 | CC(C)NCC(O)c1ccc(O)c2c1OCC(=O)N2 (stereo unspecified) | – | –
– | 0.324 | Cc1ccccc1CCCNCC(O)c1ccc(O)c2c1OCC(=O)N2 (stereo unspecified) | – | –
0.0115 | 4.07 | O=C1COc2c(C(O)CNCCc3ccccc3F)ccc(O)c2N1 (stereo unspecified) | 128 | –
0.0269 | 3.72 | O=C1COc2c(C(O)CNCCc3cccc(Cl)c3)ccc(O)c2N1 (stereo unspecified) | 65.3 | –
– | 1.7 | O=C1COc2c(C(O)CNCCOc3ccccc3)ccc(O)c2N1 (stereo unspecified) | – | –
– | – | COc1ccccc1CCNCC(O)c1ccc(O)c2c1OCC(=O)N2.Cl (stereo unspecified) | – | half-life [3]: 5.21 h; half-life [4]: 3.77 h; Tmax [5]: 5.33 h; Cmax [6]: 0.024 µg/mL; AUC(0-t) at 24 h [7]: 0.294 µg·h/mL; AUC [8]: 0.306 µg·h/mL; MRT [9]: 5.92 h; MRT inf [10]: 6.98 h; F [11]: 7.65%; Tmax [12]: 4.98 min; Cmax [13]: 0.416 µg/mL; AUC(0-t) at 24 h [14]: 0.329 µg·h/mL; AUC [15]: 0.338 µg·h/mL; MRT [16]: 2.67 h; MRT inf [17]: 3.43 h; Vd [18]: 44 L/kg; clearance [19]: 6.1 L/h/kg
– | 2.19 | CCCCCCNCC(O)c1ccc(O)c2c1OCC(=O)N2 (stereo unspecified) | – | –

EC50 [1] [nM] | EC50 [2] [nM] | Structure (SMILES) | Emax (Trachea) [%] | other results
0.00759 | – | Cc1ccc(CCCNCC(O)c2ccc(O)c3c2OCC(=O)N3)cc1 (stereo unspecified) | – | –
– | 5.37 | O=C1COc2c(C(O)CNCCc3ccccc3Cl)ccc(O)c2N1 (stereo unspecified) | – | –
0.0257 | 16.6 | CCCCNCC(O)c1ccc(O)c2c1OCC(=O)N2 (stereo unspecified) | 53.3 | –
0.00575 | 0.12 | O=C1COc2c(C(O)CNCCCc3ccc(O)cc3)ccc(O)c2N1 (stereo unspecified) | 181 | –
0.0224 | 1.32 | O=C1COc2c(C(O)CNC3CC3)ccc(O)c2N1 (stereo unspecified) | 123 | –
– | 1.91 | O=C1COc2c(C(O)CNCCc3ccccc3)ccc(O)c2N1 (stereo unspecified) | – | –
0.0132 | 2.19 | COc1ccc(CCNCC(O)c2ccc(O)c3c2OCC(=O)N3)cc1 (stereo unspecified) | 59.6 | –
– | 0.105 | O=C1COc2c(C(O)CNCCCc3cc(F)cc(F)c3)ccc(O)c2N1 (stereo unspecified) | – | –
– | 0.309 | O=C1COc2c(C(O)CNCCCCc3ccccc3)ccc(O)c2N1 (stereo unspecified) | – | –
0.0537 | 1.58 | COc1cc(CCCNCC(O)c2ccc(O)c3c2OCC(=O)N3)cc(OC)c1OC (stereo unspecified) | 142 | –
– | 2.14 | CC(C)(C)NCC(O)c1ccc(O)c2c1OCC(=O)N2 (stereo unspecified) | – | –
– | 0.129 | O=C1COc2c(C(O)CNCCCc3ccccc3O)ccc(O)c2N1 (stereo unspecified) | – | –
0.00537 | 3.72 | O=C1COc2c(C(O)CNCCc3ccc(F)cc3)ccc(O)c2N1 (stereo unspecified) | 76.7 | –
– | 0.513 | O=C1COc2c(C(O)CNCCCc3cccc(C(F)(F)F)c3)ccc(O)c2N1 (stereo unspecified) | – | –
1.32 | 1000 | O=C1COc2c(C(O)CNCCc3ccc(Cl)cc3)ccc(O)c2N1 (stereo unspecified) | 86.7 | –
0.0282 | 0.912 | Cc1ccccc1CCNCC(O)c1ccc(O)c2c1OCC(=O)N2 (stereo unspecified) | 135 | –
– | 0.245 | Cc1cccc(CCCNCC(O)c2ccc(O)c3c2OCC(=O)N3)c1 (stereo unspecified) | – | –
– | – | CC(C)NCC(O)c1ccc(O)c(O)c1 (stereo unspecified) [ISOPROTERENOL] | 141 | –
– | 33.9 | COc1ccc(CC(C)(C)NC[C@H](O)c2cc(O)cc3c2OCC(=O)N3)cc1 [OLODATEROL] | – | –
